From patent US20040039023A1, “Therapeutic agents” (priority 2000, published 2004)

How the values were obtained:
[1] = molecular target: T1, 5-HT1A receptors (Rattus norvegicus, UniProt P19327); assay: Inhibition of [3H]8-OH-DPAT binding to 5-HT1A receptors, rat hippocampal tissue; details: ligand [3H]8-OH-DPAT 2 nM
T1 construct: Hippocampal tissue from the brains of male Charles River CD rats; from tissue; host or cells: rat hippocampus membrane homogenate
T1 sequence (P19327 1-422): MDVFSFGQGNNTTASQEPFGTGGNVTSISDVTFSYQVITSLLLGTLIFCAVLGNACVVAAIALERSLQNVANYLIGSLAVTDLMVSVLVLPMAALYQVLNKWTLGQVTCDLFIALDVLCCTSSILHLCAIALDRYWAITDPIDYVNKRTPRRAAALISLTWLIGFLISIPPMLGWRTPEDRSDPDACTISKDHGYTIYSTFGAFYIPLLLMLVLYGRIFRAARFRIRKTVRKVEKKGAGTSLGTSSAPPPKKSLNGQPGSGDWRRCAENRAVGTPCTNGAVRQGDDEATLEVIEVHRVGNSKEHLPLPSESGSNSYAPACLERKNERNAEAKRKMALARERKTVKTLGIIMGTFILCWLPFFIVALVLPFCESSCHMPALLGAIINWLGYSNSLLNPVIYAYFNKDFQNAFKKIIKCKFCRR
Procedure: Hippocampal tissue from the brains of male Charles River CD rats weighing between 150-250 g were homogenised in ice-cold 50 mM Tris-HCl buffer (pH 7.7) when measured at 25° C., 1:40 w/v) and centrifuged at 30,000 g at 4° C. for 10 minutes. The pellet was rehomogenised in the same buffer, incubated at 37° C. for 10 minutes and centrifuged at 30,000 g at 4° C. for 10 minutes. The final pellet was resuspended in 50 mM Tris-HCl buffer (pH 7.7) containing 4 mM CaCl2, 0.1% L-ascorbic acid and 10 μM pargyline hydrochloride (equivalent to 6.25 mg wet weight of tissue/ml) and used immediately in the binding assay. Aliquots (400 μl; equivalent to 2.5 mg wet weight of tissue/tube) of this suspension were added to tubes containing the ligand (50 μl; 2 nM) and distilled water (50 μl; total binding) or 5-HT (50 μl; 10 μM; non-specific binding) or test compound (50 μl; at a single concentration of 10^−6 M or at 10 concentrations ranging from 10^−11-10^−3 M). The ligand was [^3H]8-hydroxy-2-(dipropylamino)tetralin ([^3H]8-OH-DPAT) and the mixture was incubated at 25° C. for 30 minutes before the incubation was terminated by rapid filtration.
(§1) The filters were washed with ice-cold Tris-HCl buffer and dried. The filters were punched out into vials, scintillation fluid added and radioactivity determined by liquid scintillation counting. The percentage displacement of specific binding of the tritiated ligand was calculated for the single concentration (10^−6 M) of test compound. Displacement curves were then produced for those compounds which displaced ≧50% of specific binding of the tritiated ligand at 10^−6 M using a range of concentrations of the compound. The concentration which gave 50% inhibition of specific binding (IC50) was obtained from the curve. The inhibition coefficient Ki was then calculated using the formula [formula]
(§2) in which [ligand] is the concentration of the tritiated ligand used and KD is the equilibrium dissociation constant for the ligand.

[2] = molecular target: α1-adrenoceptors; assay: Inhibition of [7-methoxy-3H]prazosin binding to α1-adrenoceptors, rat whole cortical tissue; details: ligand [7-methoxy-3H]prazosin 0.1 nM
Procedure: Whole cortical tissue from the brains of male Charles River CD rats weighing between 150-250 g were homogenised in ice-cold 50 mM Tris-HCl, pH 7.6 (at 25° C.; 1:40 w/v) and centrifuged at 1000 g at 4° C. for 10 minutes. The supernatant was centrifuged at 30,000 g at 4° C. for 10 minutes. The pellet was rehomogenised in 50 mM Tris-HCl, pH 7.6 (1:40 w/v) and centrifuged at 30,000 g at 4° C. for 10 minutes. The final pellet was resuspended in 50 mM Tris-HCl, pH 7.6 (equivalent to 12.5 mg wet weight of tissue/ml) and used immediately in the binding assay. Aliquots (400 μl; equivalent to 5 mg wet weight of tissue/tube) of this suspension were added to tubes containing the ligand (50 μl; 0.1 nM) and distilled water (50 μl; total binding) or phentolamine (50 μl; 5 μM; non-specific binding) or test compound (50 μl; at a single concentration of 10^−6M or at 10 concentrations ranging from 10^−11-10^−3M). The ligand was [7-methoxy-^3H]prazosin and the mixture was incubated at 30° C. for 30 minutes before the incubation was terminated by rapid filtration.
as §1, §2

[3] = molecular target: T2, D2 dopamine receptors (Rattus norvegicus, UniProt P61169); assay: Inhibition of tritiated (S)-sulpiride binding to D2 dopamine receptors, rat striatal tissue; details: ligand tritiated (S)-sulpiride 1 nM
T2 construct: Striatal tissue from the brains of male Charles River CD rats; from tissue; host or cells: rat striatum membrane homogenate
Procedure: Striatal tissue from the brains of male Charles River CD rats weighing between 140-250 g were homogenised in ice-cold 50 mM Tris-HCl buffer (pH 7.7 when measured at 25° C.) and centrifuged at 40,000 g for 10 minutes. The pellet was resuspended in Tris salts buffer (50 mM Tris-HCl buffer containing 120 mM NaCl, 5 mM KCl, 2 mM CaCl2 and 1 mM MgCl2 with the addition of 6 mM ascorbic acid; pH 7.7 when measured at 25° C.), and again centrifuged at 40,000 g for 10 minutes. The final pellet was stored at −80° C. Before each test the pellet was resuspended in Tris salts buffer (equivalent to 2 mg wet weight of tissue/ml). […]
The filters were washed with ice-cold Tris-HCl buffer and dried. The filters were punched out in to vials, scintillation fluid added and were left for about 20 hours before being counted by scintillation spectrophotometry. The percentage displacement of specific binding of the tritiated ligand was calculated for the single concentration (10^−6 M) of test compound. […] The inhibition coefficient Ki was then calculated using the formula [formula] […]

[4] = tested on: apomorphine-induced climbing in mice; assay: Antagonism of apomorphine-induced climbing in mice; format: in vivo; details: male mice; for ED50: Mus musculus, po 30 minutes before apomorphine 0.88 mg/kg sc, free base equivalents, read-out: ED50 (dose causing 50% of the control score); for duration: po, antagonism of apomorphine-induced climbing
Procedure: Antagonism of Apomorphine-Induced Climbing in Mice Groups of 10 male mice weighing […] (max. range 10 g) were treated with test compound or control vehicle by po administration. 30 minutes later, mice were injected subcutaneously with apomorphine (0.88 mg/kg). Immediately after the apomorphine injection the mice were placed in the test cages and the climbing behaviour of each mouse was assessed at 10 and 20 minutes on a simple 0-2 ranking scale. The ED50 values (dose causing 50% of the control score) for the test compounds and 95% confidence limits were calculated.

T2 sequence (P61169 whole entry): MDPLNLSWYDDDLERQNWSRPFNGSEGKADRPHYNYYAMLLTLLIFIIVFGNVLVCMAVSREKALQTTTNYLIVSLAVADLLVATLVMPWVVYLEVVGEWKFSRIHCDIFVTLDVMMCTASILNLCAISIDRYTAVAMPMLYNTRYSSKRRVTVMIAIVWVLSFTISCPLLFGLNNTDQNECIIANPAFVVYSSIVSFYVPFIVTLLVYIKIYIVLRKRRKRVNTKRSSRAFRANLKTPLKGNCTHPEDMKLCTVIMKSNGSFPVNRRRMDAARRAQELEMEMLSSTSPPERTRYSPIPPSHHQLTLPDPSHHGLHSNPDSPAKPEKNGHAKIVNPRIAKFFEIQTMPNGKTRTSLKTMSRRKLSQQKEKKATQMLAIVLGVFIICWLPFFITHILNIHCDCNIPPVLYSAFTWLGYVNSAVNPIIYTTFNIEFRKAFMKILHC

Ki [1] [nM] | Ki [2] [nM] | Ki [3] [nM] | melting point [°C] | Structure (SMILES) | ED50 [4] [mg/kg] | duration [4]
37 | 573 | 25 | – | Oc1ccccc1N1CCC(CNC[C@H]2COc3ccc(C(F)(F)F)cc3O2)CC1 [Example 2, (S)-(−)-2-{4-[N-(7-trifluoromethyl-2,3-dihydro-1,4-benzodioxin-2-ylmethyl)aminomethyl]piperidino}phenol] | 0.6 | [>4 h]
22 | 53 | – | – | COc1ccccc1N1CCC(CNC[C@H]2COc3ccc(Cl)cc3O2)CC1 [Comparative Example A, (S)-(−)-N-(7-Chloro-1,4-benzodioxan-2-ylmethyl)-1-(1-(2-methoxyphenyl)piperid-4-yl)methylamine, reference compound] | 5 | [>6 h]
12 | 101 | 11 | 84 to 86 | Oc1ccccc1N1CCC(CNC[C@H]2COc3ccc(Cl)cc3O2)CC1 [Example 1, (S)-(−)-2-{4-[N-(7-chloro-2,3-dihydro-1,4-benzodioxin-2-ylmethyl)aminomethyl]piperidino}phenol] | 3 | [>6 h]
